Results on eleven molecules are retold here after patent publication US10660967B2, “Curcumin conjugates and methods of use thereof” (priority 2016, dated 2020).

In brackets after ≈: the same amount, converted by molar mass. Like-named read-outs stand apart in the source and are kept apart here.

The subject of series [1] is Salmonella typhi ATCC19430. Nature of the series: Antimicrobial MIC, agar dilution. The format is cell-based. To be noted: Salmonella enterica, read-out: Minimum inhibitory concentration (MIC).
Series [2] deals with Staphylococcus aureus ATCC25923. Nature of the series: Antimicrobial MIC, agar dilution. To be noted: ATCC25923, 18 h, read-out: Minimum inhibitory concentration (MIC). On the technique in general: In agar dilution the substance is mixed into plates at graded concentrations.
In series [3] the test system is Streptococcus pyogenes ATCC19615. Nature of the series: Antimicrobial MIC, agar dilution.
For series [4], the system named is Pseudomonas aeruginosa ATCC27853. Nature of the series: Antimicrobial MIC, agar dilution.
The test system of series [5] is Candida albicans (local isolate). Nature of the series: Antimicrobial MIC, agar dilution. The settings on record: Candida albicans (local isolate).
For series [6], the system named is lipopolysaccharide-stimulated peritoneal macrophages. Nature of the series: Production of nitric oxide by lipopolysaccharide-stimulated peritoneal macrophages (Greiss reagent). The format is cell-based. The settings on record: LPS-stimulated peritoneal macrophages. Details: Potency (%): % inhibition of nitric oxide production relative to lipopolysaccharide-stimulated macrophages: concentration or dose not given beside the values. On the procedure: The effects of the synthesized curcumin conjugates on the production of nitric oxide (μM) by lipopolysaccharide-stimulated peritoneal macrophages were evaluated.
Two milliliters of macrophage cells were seeded in 12-well tissue culture plates in nitrite-free medium supplemented with 0.1% bovine serum albumin and incubated at 37° C. LPS±epinephrine, norepinephrine, or dopamine at […] concentrations was added to some wells. The concentrations of LPS used ranged from 0.5 to 10 ng/ml. After incubation for 24 h, supernatants were collected for measuring nitric oxide (NO) by spectrophotometry. The production of NO was determined from the accumulation of nitrite (NO2), the metabolic end product of NO metabolism, in the medium using the Greiss reagent. About equal volumes (100 μl) of sample and Greiss reagent (1:1 mixture of 1% sulfanilamide in 5% phosphoric acid, and 0.1% a-naphthylamine in distilled water) were mixed and incubated at room temperature for 15 min, and absorbance was measured at 532 nm on a spectrophotometer.

Another series relates to gastric mucosa. Nature of the series: Ulcerogenic liability (ulcer index). The format is in vivo, albino mice. On the procedure: The ulcerogenic liability was investigated in albino mice using the standard method. […] The animals were fasted 18 h before drug administration. […] The control group animals were given saline solution only with few drops of Tween 80. […] The gastric mucosa was examined with a magnifying lens (10×) for the presence of lesions and erosions.
1. percentage incidence of ulcer divided by 10;
2. average number of ulcers per stomach; and
3. average severity of ulcers;

Series [7] relates to PHA-stimulated splenocytes. Nature of the series: Proliferative response of PHA-stimulated splenocytes (MTT assay). The format is cell-based. The method, then:
Immunomodulatory effects of the synthesized curcumin conjugates on the proliferative response of PHA-stimulated splenocytes were evaluated. The effect of curcumin and its amino acid conjugates on splenocyte viability and proliferation in response to a T cell miotgen (Phytohaemagglutinin; PHA) was evaluated using the MTT assay. Freshly prepared splenocytes (1×10^6 cells/200 μl/well) were cultured in a 96-well U-bottom microtiter plate (Nunc) in complete medium. Cells were treated with tested compounds at a final concentration of 10 μM, vehicle (DMSO) or left untreated in triplicate then incubated at 37° C. and 5% CO2. When testing the immunoregulatory effects of the compounds on splenocyte stimulation, PHA (5 μg/ml) was added to the culture media to induce T cell proliferation. The proliferative response to PHA+vehicle and vehicle alone served as controls. After 72 hr, media were removed after pelleting the cells by centrifugation and MTT salt solution (5 mg/ml) was added into each well then incubated at 37° C. for 4 h. Afterwards, formazan crystals were dissolved by adding 150 μl 10% sodium dodecyl sulfate (SDS). Absorbance was measured with a spectrophotometer at 570 nm and reference wavelength of 690 nm.
Splenocyte stimulation index was determined as the ratio of O.D. values in tested compounds versus vehicle control cultures.
For orientation: Formazan colour is commonly taken as a measure of viable cells.

For series [8], the system named is carrageenan induced paw edema. Nature of the series: Anti-inflammatory activity: acute carrageenan induced paw edema in rats. In kind it is in vivo, Wister rats. The settings on record: 10 mg kg^−1 indomethacin mol equivalent; for % inhibition of edema / Mean edema thickness: intraperitoneally; for Mean edema thickness: mean ± SE; for Potency (% inhibition of edema relative to that of indomethacin reference standard): at 4 h effect. Put shortly:
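Wistar rats (120–150 g, n=6/group) received subplantar 1% carrageenan in the right hind paw, and DMSO-vehicle animals served as controls. Results are given as % inhibition of edema thickness versus control.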
Background: The carrageenan paw model is a standard test of acute inflammation.

[9] abbreviates: ATCC19615, 18 h, read-out: Minimum inhibitory concentration (MIC).
Setting [10] is: ATCC19615, read-out: Minimum inhibitory concentration (MIC).
Where [11] appears, read: ATCC27853, 18 h, read-out: Minimum inhibitory concentration (MIC).
Where [12] appears, read: ATCC27853, read-out: Minimum inhibitory concentration (MIC).
The mark [13] stands for this setting: both, albino, mouse, in vivo, po, 10 mg/kg, 3 days.
The mark [14] stands for this setting: orally, three successive days, 10 mg/kg indomethacin mol equivalent.

`CCn1cc(C(=O)O)c(=O)c2cc(F)c(N3CCNCC3)cc21` [Norfloxacin, reference compound]: the MIC in series [1] (18 h) came to 2.4 µg/mL; in series [1], 7.52 µM; in [2], 1250 µg/mL (≈ 3.91 mM); in [3] (setting [9]), 625 µg/mL; in series [3] (setting [10]), 1960 µM; in series [4] (setting [11]) it was 4.8 µg/mL. Also, in series [4] (setting [12]), the MIC is 15 µM.
In the case of `O=C(O)c1cn(C2CC2)c2cc(N3CCNCC3)c(F)cc2c1=O` [Ciprofloxacin, reference compound], the MIC is 2.4 µg/mL in series [1] (18 h); 7.24 µM in [1]; 1250 µg/mL (≈ 3.77 mM) in [2]; 1250 µg/mL in [3] (setting [9]); 3770 µM in [3] (setting [10]); 4.8 µg/mL in [4] (setting [11]). Also, the MIC in series [4] (setting [12]) was determined as 14.5 µM.
Turning to `C[C@@H]1[C@H](O)[C@@H](C)/C=C/C=C/C=C/C=C/C=C/C=C/C=C/[C@H](O[C@@H]2O[C@H](C)[C@@H](O)[C@H](N)[C@@H]2O)C[C@@H]2O[C@](O)(C[C@@H](O)C[C@@H](O)[C@H](O)CC[C@@H](O)C[C@@H](O)CC(=O)O[C@H]1C)C[C@H](O)[C@H]2C(=O)O` [Amphotericin B, reference compound], the “Minimum inhibitory concentration (MIC)” value is 0.39 µg/mL (≈ 0.000422 mM) in series [5] (37° C., 18 h) and “(0.422) μM” in series [5] (value in brackets).
With “lipopolysaccharide [LPS, reference compound]”, the “Potency (%): % inhibition of nitric oxide production relative to lipopolysaccharide-stimulated macrophages” value in [6] was 0.00%. Also, the “Nitric oxide (nitrite) concentration, μM (average ± SD)” value in series [6] (24 h, nitrite by Greiss reagent) worked out at 27.31 ± 2.56 µM.
With `COc1ccc2c(c1)c(CC(=O)O)c(C)n2C(=O)c1ccc(Cl)cc1` [Indomethacin, 2-(1-(4-chlorobenzoyl)-5-methoxy-2-methyl-1H-indol-3-yl)acetic acid, reference compound], in the series with gastric mucosa (setting [13]), the “% Incidence of ulcer divided by 10” value was determined as 10, the “Average of ulcer number” value is 2 and the “Number of animals with ulcer” value is given as 6/6. The “Average severity of ulcer” value with gastric mucosa (setting [14]) was found to be 1.67. Further, in the series on gastric mucosa (sum of the three values, orally, three successive days, 10 mg/kg indomethacin mol equivalent), the Ulcer index is listed as 13.67.
On to `CC(C)Cc1ccc(C(C)C(=O)O)cc1` (stereo not shown) [Ibuprofen, 2-(4-isobutylphenyl)propanoic acid, reference compound], for which, in the series with gastric mucosa (setting [13]), the “Average of ulcer number” value is on record as 0.33, the “Average severity of ulcer” value was 0.67 and the “Number of animals with ulcer” value was 2/6. Moreover, the “% Incidence of ulcer divided by 10” value with gastric mucosa (setting [14]) came out at 3.33.
On to “Phytohaemagglutinin [PHA, reference compound]”, for which the “Stimulation Index (average ± SD)” value in series [7] (PHA 5 μg/ml, 72 hr, compounds at 5 μM (method says 10 μM), ratio of O.D. versus vehicle control) is listed as 2.78 ± 0.28. For the same molecule, the “splenocyte proliferation, fold relative to untreated control cells” value in series [7] (in the presence of PHA, text of b265) is listed as 2.76 fold.
Consider `COc1cc(/C=C/C(=O)CC(=O)/C=C/c2ccc(OC(=O)[C@@H](N)Cc3ccccc3)c(OC)c2)ccc1OC(=O)[C@@H](N)Cc1ccccc1.Cl.Cl` [Compound 34], for which the “% inhibition of edema” value is given as 46% in series [8] (1 h); 51% in series [8] (2 h); 63% in series [8] (3 h); 84% in series [8] (4 h); 20% in series [8] (24 h). The Mean edema thickness is 1.29 ± 0.14 mm in series [8] (1 h); 1.01 ± 0.11 mm in series [8] (2 h); 0.66 ± 0.08 mm in series [8] (3 h); 0.22 ± 0.03 mm in series [8] (4 h); 0.66 ± 0.04 mm in series [8] (24 h). Further, the “Potency (% inhibition of edema relative to that of indomethacin reference standard)” value in series [8] was 97.
`COc1cc(/C=C/C(=O)CC(=O)/C=C/c2ccc(OC(=O)CNC(=O)OC(C)(C)C)c(OC)c2)ccc1OC(=O)CNC(=O)OC(C)(C)C` [Compound 22]: the “% inhibition of edema” value in [8] (1 h) is reported as 43%; in series [8] (2 h) it was 44%; in [8] (3 h) it was 44%; in [8] (4 h), 48%; in [8] (24 h) it was 47%. Further, the Mean edema thickness in series [8] (1 h) was determined as 1.37 ± 0.18 mm; in [8] (2 h) it was 1.16 ± 0.14 mm; in [8] (3 h), 1.00 ± 0.11 mm; in [8] (4 h) it was 0.73 ± 0.09 mm; in series [8] (24 h) it was 0.44 ± 0.05 mm. In addition, in series [8], the “Potency (% inhibition of edema relative to that of indomethacin reference standard)” value was 55.
Take `COc1cc(/C=C/C(=O)CC(=O)/C=C/c2ccc(OC(=O)[C@@H](N)CCSC)c(OC)c2)ccc1OC(=O)[C@@H](N)CCSC.Cl.Cl` [Compound 39]: the “% inhibition of edema” value in series [8] (1 h) is on record as 64%; in [8] (2 h), 70%; in [8] (3 h), 73%; in series [8] (4 h) it was 97%; in series [8] (24 h), 36%. For the same molecule, the Mean edema thickness amounted to 0.86 ± 0.13 mm in [8] (1 h); 0.62 ± 0.11 mm in series [8] (2 h); 0.49 ± 0.07 mm in series [8] (3 h); 0.04 ± 0.01 mm in series [8] (4 h); 0.53 ± 0.03 mm in series [8] (24 h). The “Potency (% inhibition of edema relative to that of indomethacin reference standard)” value in series [8] was 111.
For `COc1cc(/C=C/C(=O)CC(=O)/C=C/c2ccc(OC(=O)[C@H](Cc3ccccc3)NC(=O)OCc3ccccc3)c(OC)c2)ccc1OC(=O)[C@H](Cc1ccccc1)NC(=O)OCc1ccccc1` [Compound 11], the “% inhibition of edema” value in series [8] (1 h) came to 59%; in series [8] (2 h) it was 24%; in series [8] (3 h), 9%; in [8] (4 h) it was 5%; in series [8] (24 h) it was 1%. Also, the Mean edema thickness in series [8] (1 h) stood at 1.00 ± 0.07 mm; in series [8] (2 h), 1.56 ± 0.09 mm; in series [8] (3 h), 1.63 ± 0.16 mm; in [8] (4 h), 1.38 ± 0.10 mm; in series [8] (24 h), 0.82 ± 0.13 mm. The “Potency (% inhibition of edema relative to that of indomethacin reference standard)” value in series [8] was 6.
